Experimental data published in patent publication US9663496B2, “AMPK-activating heterocyclic compounds and methods for using the same” (Rigel Pharmaceuticals, Inc., priority 2010, dated 2017).

molecular target: AMPK; experiment: AMPK activation, enzyme-linked immunosorbent assay; assay type: biochemical; settings: EC50 for AMPK activation, ELISA
Outline: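 Test compounds were added, and kinase activation was then detected by immunoassay following established kit procedures.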

Structure (SMILES)	EC50 [nM]
COc1ccc(C(=O)C2CCN(C(=O)c3ccc(C(=O)NC4CCN(Cc5ccc(N6CCCC6)cc5)CC4)nc3)CC2)cc1 [Compound 194, 5-(4-(4-methoxybenzoyl)piperidine-1-carbonyl)-N-(1-(4-(pyrrolidin-1-yl)benzyl)piperidin-4-yl)picolinamide]	< 500
COc1ccc(OC2CCN(C(=O)c3ccc(C(=O)NC4CCN(Cc5ccc(N6CCCC6)cc5)CC4)nc3)CC2)cc1 [Compound 195, 5-(4-(4-methoxyphenoxy)piperidine-1-carbonyl)-N-(1-(4-(pyrrolidin-1-yl)benzyl)piperidin-4-yl)picolinamide]	< 500
O=C(NC1CCN(Cc2ccc(N3CCCC3)cc2)CC1)c1ccc(C(=O)N2CCC(Oc3ccc(F)cc3)CC2)cn1 [Compound 196, 5-(4-(4-fluorophenoxy)piperidine-1-carbonyl)-N-(1-(4-(pyrrolidin-1-yl)benzyl)piperidin-4-yl)picolinamide]	< 500
N#Cc1ccc(OC2CCN(C(=O)c3ccc(C(=O)NC4CCN(Cc5ccc(N6CCCC6)cc5)CC4)nc3)CC2)cc1 [Compound 197, 5-(4-(4-cyanophenoxy)piperidine-1-carbonyl)-N-(1-(4-(pyrrolidin-1-yl)benzyl)piperidin-4-yl)picolinamide]	< 500
N#Cc1ccc(OC2CCN(C(=O)c3ccc(C(=O)NC4CCN(Cc5ccc(F)cc5)CC4)nc3)CC2)cc1 [Compound 200, 5-(4-(4-cyanophenoxy)piperidine-1-carbonyl)-N-(1-(4-fluorobenzyl)piperidin-4-yl)picolinamide]	< 500
NC(=O)c1ccc(CN2CCC(NC(=O)c3ccc(C(=O)N4CCN(Cc5ccc(F)cc5)CC4)cn3)CC2)cc1 [Compound 201, N-(1-(4-carbamoylbenzyl)piperidin-4-yl)-5-(4-(4-fluorobenzyl)piperazine-1-carbonyl)picolinamide]	500 to 1000
COc1ccc(CN2CCC(NC(=O)c3ccc(C(=O)N4CCC(Oc5ccc(S(C)(=O)=O)cc5)CC4)cn3)CC2)cc1 [Compound 202, N-(1-(4-methoxybenzyl)piperidin-4-yl)-5-(4-(4-(methylsulfonyl)phenoxy)piperidine-1-carbonyl)picolinamide]	< 500

More lines, now with the values ahead:

EC50 [nM]	Structure (SMILES)
< 500	N#Cc1ccc(O[C@H]2CC[C@@H](NC(=O)c3ccc(C(=O)N4CCC(Oc5ccc(C(F)(F)F)cc5)CC4)cn3)CC2)cc1 [Compound 190, N-((cis)-4-(4-cyanophenoxy)cyclohexyl)-5-(4-(4-(trifluoromethyl)phenoxy)piperidine-1-carbonyl)picolinamide]
< 500	COc1ccc(OC2CCN(C(=O)c3ccc(C(=O)N[C@H]4CC[C@@H](Oc5ccc(C(F)(F)F)cc5)CC4)nc3)CC2)cc1 [Compound 191, 5-(4-(4-methoxyphenoxy)piperidine-1-carbonyl)-N-((cis)-4-(4-(trifluoromethyl)phenoxy)cyclohexyl) picolinamide]
< 500	COc1ccc(C(=O)C2CCN(C(=O)c3ccc(C(=O)N[C@H]4CC[C@@H](Oc5ccc(C(F)(F)F)cc5)CC4)nc3)CC2)cc1 [Compound 192, 5-(4-(4-methoxybenzoyl)piperidine-1-carbonyl)-N-((cis)-4-(4-(trifluoromethyl)phenoxy)cyclohexyl) picolinamide]
< 500	N#Cc1ccc(OC2CCN(C(=O)c3ccc(C(=O)N[C@H]4CC[C@@H](Oc5ccc(C(F)(F)F)cc5)CC4)nc3)CC2)cc1 [Compound 193, 5-(4-(4-cyanophenoxy)piperidine-1-carbonyl)-N-((cis)-4-(4-(trifluoromethyl)phenoxy)cyclohexyl) picolinamide]
< 500	COc1ccc(C(=O)C2CCN(C(=O)c3ccc(C(=O)N[C@H]4CC[C@@H](Oc5ccc(C#N)c(F)c5)CC4)nc3)CC2)cc1 [Compound 198, N-((cis)-4-(4-cyano-3-fluorophenoxy)cyclohexyl)-5-(4-(4-methoxybenzoyl)piperidine-1-carbonyl)picolinamide]
